Consider eight compounds from ChEMBL document CHEMBL1201862, “PubChem BioAssay data set” (2004).

Some test systems named below: ACHN; MDA-MB-435; SK-MEL-5; OVCAR-5; RPMI-8226; COLO 205; SK-MEL-28; EKVX; A498; SF-268; HL-60; SF-539; KM12; MDA-N; SR; UACC-257; HT-29; MDA-MB-231; 786-0.
Assay in all cases: inhibition of tumour cell growth, NCI panel, 48 h

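How tested: cells in 96-well plates exposed to compound for 48 hours at five concentrations. GI50 = concentration required for 50% inhibition of growth.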 Activity calls are given as the source filed them. Cut-off read from the data, not from the text of the source: active = GI50 up to about 1.1 µM and inactive = higher. Where only a bound is given, the exact number is not on record here.

Consider `C/C(=N\O)c1ccc(Nc2c3ccccc3nc3occc23)cc1`, for which the GI50 was 0.302 µM (active) in the assay on ACHN; 0.0246 µM (active) in the assay on MDA-MB-435; 0.222 µM (active) with SK-MEL-5; 2.75 µM (inactive) in the assay on OVCAR-5; 0.207 µM (active) in the assay on RPMI-8226; 0.156 µM (active) in the assay on COLO 205. Further, the GI50 with SK-MEL-28 was 0.659 µM (active); in the assay on EKVX it was 5.82 µM (inactive); with A498, 1.11 µM (active); in the assay on SF-268, 0.514 µM (active); with HL-60 it was 0.154 µM (active); in the assay with SF-539 it was 0.169 µM (active). In addition, the GI50 in the assay with KM12 was 0.231 µM (active); in the assay on MDA-N it was 0.0847 µM (active); in the assay on SR, 0.023 µM (active); in the assay with UACC-257, 7.26 µM (inactive); in the assay on HT-29, 0.199 µM (active); in the assay on MDA-MB-231, 0.9 µM (active). Moreover, the GI50 with 786-0 was 0.51 µM (active).
Turning to `CN1CCN(C(=O)CCNC(=O)Cc2ccc(C(=O)c3ccccc3)cc2)CC1`, the GI50 in the assay on ACHN is > 100 µM (inactive); in the assay with MDA-MB-435, 22.9 µM (inactive); with SK-MEL-5, 71.6 µM (inactive); with OVCAR-5 it was > 100 µM (inactive); in the assay on RPMI-8226 it was > 100 µM (inactive); with COLO 205, 74 µM (inactive). The GI50 in the assay on SK-MEL-28 is > 100 µM (inactive); in the assay on EKVX it was > 100 µM (inactive); in the assay with A498, 83.4 µM (inactive); in the assay on SF-268, > 100 µM (inactive); in the assay with HL-60, 58.3 µM (inactive); in the assay on SF-539 it was > 100 µM (inactive). Besides, the GI50 in the assay on KM12 is 48.6 µM (inactive); with MDA-N it was 15.5 µM (inactive); in the assay with SR it was > 100 µM (inactive); in the assay on UACC-257, > 100 µM (inactive); in the assay on HT-29, > 100 µM (inactive); with MDA-MB-231, > 100 µM (inactive). Also, the GI50 in the assay on 786-0 was > 100 µM (inactive).
With `CCCNC(=S)N/N=C(\C)c1ccc(S(=O)(=O)N(C)c2ccccc2)cc1`, the GI50 with ACHN is 24.7 µM (inactive); in the assay with MDA-MB-435 it was > 100 µM (inactive); in the assay with SK-MEL-5, > 100 µM (inactive); in the assay on OVCAR-5, > 67.6 µM (inactive); in the assay on RPMI-8226 it was > 31.6 µM (inactive); in the assay with COLO 205, > 100 µM (inactive). The GI50 in the assay on SK-MEL-28 is > 100 µM (inactive); in the assay with EKVX it was 37.8 µM (inactive); in the assay with A498, 55.3 µM (inactive); in the assay on SF-268 it was 7.06 µM (inactive); in the assay on HL-60, > 100 µM (inactive); with SF-539, 5.25 µM (inactive). Besides, the GI50 in the assay with KM12 was > 100 µM (inactive); with MDA-N it was > 100 µM (inactive); in the assay with SR, 49.5 µM (inactive); with UACC-257, > 100 µM (inactive); in the assay on HT-29, > 100 µM (inactive); in the assay on MDA-MB-231, 27.9 µM (inactive). The GI50 in the assay with 786-0 is 19.3 µM (inactive).
For `C=C(Br)CN(C(C)=O)C1CCCCC1`, the GI50 with ACHN, in the assay on MDA-MB-435, in the assay with SK-MEL-5, with OVCAR-5, in the assay on RPMI-8226 and in the assay on COLO 205 was > 100 µM (inactive) in each case. The GI50 in the assay on SK-MEL-28, in the assay with EKVX, with A498, with SF-268, with HL-60 and in the assay with SF-539 was > 100 µM (inactive) throughout. For the same compound, the GI50 with KM12, in the assay on MDA-N, in the assay with SR, with UACC-257, in the assay with HT-29 and with MDA-MB-231 was > 100 µM (inactive) throughout. Besides, the GI50 with 786-0 is > 100 µM (inactive).
Turning to `Clc1cc(OC23CC4CC(CC(C4)C2)C3)nc(Cl)n1`, the GI50 in the assay with ACHN is > 100 µM (inactive); with MDA-MB-435, 39.2 µM (inactive); with SK-MEL-5, 38.8 µM (inactive); in the assay with OVCAR-5, > 100 µM (inactive); in the assay on RPMI-8226 it was 37.9 µM (inactive); in the assay with COLO 205, 56.6 µM (inactive). Further, the GI50 in the assay with SK-MEL-28 is 43.2 µM (inactive); in the assay with EKVX, 37.5 µM (inactive); with A498 it was > 100 µM (inactive); with SF-268, 69.8 µM (inactive); in the assay on HL-60, 10 µM (inactive); with SF-539, > 100 µM (inactive). Also, the GI50 in the assay on KM12 was > 100 µM (inactive); in the assay with MDA-N, 50.6 µM (inactive); in the assay on SR it was 19.8 µM (inactive); in the assay with UACC-257, 39 µM (inactive); with HT-29, 28.9 µM (inactive); in the assay on MDA-MB-231, 33.7 µM (inactive). The GI50 in the assay on 786-0 was > 100 µM (inactive).
In the case of `Cc1ccc(/C=C/C(=N/NC(=O)N/N=C(/C=C/c2ccc(C)cc2)C(C)(C)CN2CCCCC2)C(C)(C)CN2CCCCC2)cc1`, the GI50 in the assay on ACHN is 2 µM (inactive); with MDA-MB-435 it was 1.45 µM (inactive); with SK-MEL-5, 1.67 µM (inactive); with OVCAR-5, 2.16 µM (inactive); in the assay on RPMI-8226, 0.258 µM (active); in the assay with COLO 205 it was 1.53 µM (inactive). In addition, the GI50 with SK-MEL-28 is 1.73 µM (inactive); in the assay on EKVX, 2.67 µM (inactive); in the assay on A498 it was 1.67 µM (inactive); with SF-268, 1.81 µM (inactive); in the assay with HL-60, 1.63 µM (inactive); in the assay with SF-539, 1.77 µM (inactive). In addition, the GI50 was 1.64 µM (inactive) in the assay with KM12; 1.52 µM (inactive) with MDA-N; 0.0787 µM (active) in the assay with SR; 1.72 µM (inactive) with UACC-257; 0.757 µM (active) in the assay with HT-29; 1.79 µM (inactive) in the assay on MDA-MB-231. Moreover, the GI50 in the assay with 786-0 is 1.39 µM (inactive).
As to `CC(C)(C)[Si](C)(C)OCC1OC(n2ccc(=O)[nH]c2=O)C(O[Si](C)(C)C(C)(C)C)/C1=C/C#N` (configuration not stated), the GI50 in the assay with ACHN was 5.7 µM (inactive); with MDA-MB-435, 3.94 µM (inactive); in the assay with SK-MEL-5 it was 3.07 µM (inactive); with OVCAR-5, 20.4 µM (inactive); with RPMI-8226, 3.71 µM (inactive); in the assay with COLO 205, 2.61 µM (inactive). In addition, the GI50 was 1.49 µM (inactive) in the assay on SK-MEL-28; 24.4 µM (inactive) in the assay on EKVX; 10 µM (inactive) in the assay on A498; 6.56 µM (inactive) in the assay with SF-268; 2.86 µM (inactive) in the assay with HL-60; 5.14 µM (inactive) in the assay on SF-539. Moreover, the GI50 in the assay on KM12 is 3.66 µM (inactive); with MDA-N, 4.76 µM (inactive); in the assay on SR it was 3.5 µM (inactive); in the assay on UACC-257, 7.19 µM (inactive); in the assay with HT-29, 3.88 µM (inactive); in the assay with MDA-MB-231, 8.41 µM (inactive). In the assay on 786-0, the GI50 was 4.37 µM (inactive).
Regarding `CN(C)CCCNC(=O)c1c(O)c2ccccc2[nH]c1=O`, the GI50 is > 100 µM (inactive) with ACHN; > 100 µM (inactive) in the assay with MDA-MB-435; > 100 µM (inactive) in the assay with SK-MEL-5; > 100 µM (inactive) in the assay on OVCAR-5; > 100 µM (inactive) in the assay with RPMI-8226; 41.1 µM (inactive) with COLO 205. Also, the GI50 in the assay on SK-MEL-28 was > 100 µM (inactive); in the assay on EKVX, > 100 µM (inactive); in the assay with A498 it was > 100 µM (inactive); in the assay on SF-268 it was 83.2 µM (inactive); in the assay on HL-60, > 100 µM (inactive); in the assay on SF-539, > 100 µM (inactive). In addition, the GI50 in the assay on KM12, with MDA-N, in the assay with SR, in the assay on UACC-257, with HT-29 and with MDA-MB-231 was > 100 µM (inactive) in each case. The GI50 in the assay with 786-0 was > 100 µM (inactive).
